Experimental data from US11414416B1, “Compounds and uses thereof” (Foghorn Therapeutics Inc., priority 2019, dated 2022).
Values belong to the compound of their own block, whether it stands above or below them.

Target: Nanoluciferase-BRD9 fusion protein (Homo sapiens (Human), UniProt Q9H8M2)
Assay: SYO1 BRD9 NanoLuc degradation assay
Type: cell-based
Details: Table 5B; SYO-1 cells expressing 3×FLAG-NLuc-BRD9, 6 hours; read-out: SYO1 BRD9-NanoLuc degradation IC50
Outline: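 Degradation was read as loss of nanoluciferase signal (Nano-Glo) after 6 h compound exposure in a stable SYO-1 line carrying 3×FLAG-NLuc-BRD9 (8000 cells/well). Normalised between DMSO (high) and a 1 μM known BRD9 degrader (low).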

Nanoluciferase-BRD9 fusion protein, sequence (Q9H8M2 whole entry, the tested form may be a part): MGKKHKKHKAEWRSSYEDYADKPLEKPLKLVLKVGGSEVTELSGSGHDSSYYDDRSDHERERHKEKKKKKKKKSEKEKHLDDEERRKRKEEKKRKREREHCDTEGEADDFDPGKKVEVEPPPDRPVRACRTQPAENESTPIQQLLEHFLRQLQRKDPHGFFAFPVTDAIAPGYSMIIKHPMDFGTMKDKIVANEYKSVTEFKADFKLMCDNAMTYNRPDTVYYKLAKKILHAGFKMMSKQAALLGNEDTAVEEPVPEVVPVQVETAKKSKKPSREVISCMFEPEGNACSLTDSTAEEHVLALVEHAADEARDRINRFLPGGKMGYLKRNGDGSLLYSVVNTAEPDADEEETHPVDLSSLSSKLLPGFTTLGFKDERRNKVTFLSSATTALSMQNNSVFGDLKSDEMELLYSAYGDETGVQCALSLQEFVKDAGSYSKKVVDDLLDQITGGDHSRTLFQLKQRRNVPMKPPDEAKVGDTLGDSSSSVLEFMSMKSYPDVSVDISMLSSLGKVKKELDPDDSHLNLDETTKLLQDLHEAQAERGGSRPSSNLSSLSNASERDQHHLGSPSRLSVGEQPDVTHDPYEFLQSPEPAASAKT

SMILES: COc1cc(-c2cn(C)c(=O)c3cnccc23)cc(OC)c1CN1CCC2(C1)CN(C(=O)C#Cc1ccc3c(c1)C(=O)N(C1CCC(=O)NC1=O)C3=O)C2 (stereo not shown) [Compound D241]
- DC50: < 10 nM

SMILES: COc1cc(-c2cn(C)c(=O)c3cnccc23)cc(OC)c1CN1CCC2C(C1)CN2C(=O)C#Cc1ccc2c(c1)C(=O)N(C1CCC(=O)NC1=O)C2=O (stereo not shown) [Compound D242]
- DC50: < 10 nM

SMILES: COc1cc(-c2cn(C)c(=O)c3cnccc23)cc(OC)c1CN1CCC2C(C1)CN2C(=O)CCC#Cc1ccc2c(c1)C(=O)N(C1CCC(=O)NC1=O)C2=O (stereo not shown) [Compound D243]
- DC50: < 10 nM

SMILES: COc1cc(-c2cn(C)c(=O)c3cnccc23)cc(OC)c1CN(C)C(=O)CCCCNC1CCC12CN(c1ccc3c(c1)C(=O)N(C1CCC(=O)NC1=O)C3=O)C2 (stereo not shown) [Compound D255]
- DC50: < 10 nM

SMILES: COc1cc(-c2cn(C)c(=O)c3cnccc23)cc(OC)c1CN(C)C(=O)CCCCNC1CC2(CCN(c3ccc4c(c3)C(=O)N(C3CCC(=O)NC3=O)C4=O)CC2)C1 (stereo not shown) [Compound D256]
- DC50: < 10 nM

SMILES: COc1cc(-c2cn(C)c(=O)c3cnccc23)cc(OC)c1CN(C)C(=O)CCCCNC1CC12CCN(c1ccc3c(c1)C(=O)N(C1CCC(=O)NC1=O)C3=O)C2 (stereo not shown) [Compound D258]
- DC50: < 10 nM

SMILES: COc1cc(-c2cn(C)c(=O)c3cnccc23)cc(OC)c1CN1CCC2(C1)CN(CC#Cc1ccc3c(c1)C(=O)N(C1CCC(=O)NC1=O)C3=O)C2 (stereo not shown) [Compound D268]
- DC50: < 10 nM

SMILES: COc1cc(-c2cn(C)c(=O)c3cnccc23)cc(OC)c1CN1CCC2(C1)CN(C(=O)CCC#Cc1ccc3c(c1)C(=O)N(C1CCC(=O)NC1=O)C3=O)C2 (stereo not shown) [Compound D269]
- DC50: < 10 nM

SMILES: COc1cc(-c2cn(C)c(=O)c3cnccc23)cc(OC)c1Cn1cc(CN2CC(Oc3ccc4c(c3)C(=O)N(C3CCC(=O)NC3=O)C4=O)C2)nn1 (stereo not shown) [Compound D270]
- DC50: 10 to 100 nM

SMILES: COc1cc(-c2cn(C)c(=O)c3cnccc23)cc(OC)c1Cn1cc(COC2CN(c3ccc4c(c3)C(=O)N(C3CCC(=O)NC3=O)C4=O)C2)nn1 (stereo not shown) [Compound D271]
- DC50: < 10 nM

SMILES: COc1cc(-c2cn(C)c(=O)c3cnccc23)cc(OC)c1Cn1cc(COC2CCN(c3ccc4c(c3)C(=O)N(C3CCC(=O)NC3=O)C4=O)CC2)nn1 (stereo not shown) [Compound D272]
- DC50: < 10 nM

SMILES: COc1cc(-c2cn(C)c(=O)c3cnccc23)cc(OC)c1CN(C)CCn1cc(CCOc2ccc3c(c2)C(=O)N(C2CCC(=O)NC2=O)C3=O)nn1 (stereo not shown) [Compound D274]
- DC50: < 10 nM

SMILES: COc1cc(-c2cn(C)c(=O)c3cnccc23)cc(OC)c1CN(C)CCn1cc(COCCOc2ccc3c(c2)C(=O)N(C2CCC(=O)NC2=O)C3=O)nn1 (stereo not shown) [Compound D275]
- DC50: < 10 nM

SMILES: COc1cc(-c2cn(C)c(=O)c3cnccc23)cc(OC)c1CN(C)CCn1cc(COC2CN(c3ccc4c(c3)C(=O)N(C3CCC(=O)NC3=O)C4=O)C2)nn1 (stereo not shown) [Compound D277]
- DC50: < 10 nM

SMILES: COc1cc(-c2cn(C)c(=O)c3cnccc23)cc(OC)c1CN(C)CCn1cc(COC2CCN(c3ccc4c(c3)C(=O)N(C3CCC(=O)NC3=O)C4=O)CC2)nn1 (stereo not shown) [Compound D278]
- DC50: 10 to 100 nM

SMILES: COc1cc(-c2cn(C)c(=O)c3cnccc23)cc(OC)c1CN1CCC(n2cc(CCOc3ccc4c(c3)C(=O)N(C3CCC(=O)NC3=O)C4=O)nn2)CC1 (stereo not shown) [Compound D279]
- DC50: < 10 nM

SMILES: COc1cc(-c2cn(C)c(=O)c3cnccc23)cc(OC)c1CN1CCC(n2cc(CN3CC(Oc4ccc5c(c4)C(=O)N(C4CCC(=O)NC4=O)C5=O)C3)nn2)CC1 (stereo not shown) [Compound D280]
- DC50: < 10 nM

SMILES: COc1cc(-c2cn(C)c(=O)c3cnccc23)cc(OC)c1CN1CCC(n2cc(COC3CCN(c4ccc5c(c4)C(=O)N(C4CCC(=O)NC4=O)C5=O)CC3)nn2)CC1 (stereo not shown) [Compound D281]
- DC50: 10 to 100 nM

SMILES: COc1cc(-c2cn(C)c(=O)c3cnccc23)cc(OC)c1CN(C)CCCn1cc(COc2ccc3c(c2)C(=O)N(C2CCC(=O)NC2=O)C3=O)nn1 (stereo not shown) [Compound D282]
- DC50: 100 to 1000 nM

SMILES: COc1cc(-c2cn(C)c(=O)c3cnccc23)cc(OC)c1CN(C)CCCn1cc(CCOc2ccc3c(c2)C(=O)N(C2CCC(=O)NC2=O)C3=O)nn1 (stereo not shown) [Compound D283]
- DC50: 100 to 1000 nM

SMILES: COc1cc(-c2cn(C)c(=O)c3cnccc23)cc(OC)c1CN(C)CCCn1cc(COCCOc2ccc3c(c2)C(=O)N(C2CCC(=O)NC2=O)C3=O)nn1 (stereo not shown) [Compound D284]
- DC50: 10 to 100 nM

SMILES: COc1cc(-c2cn(C)c(=O)c3cnccc23)cc(OC)c1CN(C)CCCn1cc(COC2CN(c3ccc4c(c3)C(=O)N(C3CCC(=O)NC3=O)C4=O)C2)nn1 (stereo not shown) [Compound D286]
- DC50: 10 to 100 nM

SMILES: COc1cc(-c2cn(C)c(=O)c3cnccc23)cc(OC)c1CN(C)CCCn1cc(COC2CCN(c3ccc4c(c3)C(=O)N(C3CCC(=O)NC3=O)C4=O)CC2)nn1 (stereo not shown) [Compound D287]
- DC50: < 10 nM

SMILES: COc1cc(-c2cn(C)c(=O)c3cnccc23)cc(OC)c1CN(C)CCOCCn1cc(COc2ccc3c(c2)C(=O)N(C2CCC(=O)NC2=O)C3=O)nn1 (stereo not shown) [Compound D288]
- DC50: < 10 nM

SMILES: COc1cc(-c2cn(C)c(=O)c3cnccc23)cc(OC)c1CN1CCC(n2cc(COc3ccc4c(c3)C(=O)N(C3CCC(=O)NC3=O)C4=O)nn2)CC1 (stereo not shown) [Compound D289]
- DC50: < 10 nM

SMILES: COc1cc(-c2cn(C)c(=O)c3cnccc23)cc(OC)c1CN1CCC(n2cc(COCCOc3ccc4c(c3)C(=O)N(C3CCC(=O)NC3=O)C4=O)nn2)CC1 (stereo not shown) [Compound D290]
- DC50: < 10 nM

SMILES: COc1cc(-c2cn(C)c(=O)c3cnccc23)cc(OC)c1CN1CCC(n2cc(COC3CN(c4ccc5c(c4)C(=O)N(C4CCC(=O)NC4=O)C5=O)C3)nn2)CC1 (stereo not shown) [Compound D291]
- DC50: < 10 nM

More lines, now with the values ahead:

- DC50: < 10 nM
SMILES: COc1cc(-c2cn(C)c(=O)c3cnccc23)cc(OC)c1CN(C)CCCCN1CCCC2(CC(Oc3ccc4c(c3)C(=O)N([C@@H]3CCC(=O)NC3=O)C4=O)C2)C1 (stereo partly shown) [Compound D244]

- DC50: 10 to 100 nM
SMILES: COc1cc(-c2cn(C)c(=O)c3cnccc23)cc(OC)c1CN(C)CCCCNC1CCC12CN(c1ccc3c(c1)C(=O)N(C1CCC(=O)NC1=O)C3=O)C2 (stereo not shown) [Compound D245]

- DC50: < 10 nM
SMILES: COc1cc(-c2cn(C)c(=O)c3cnccc23)cc(OC)c1CN(C)CCCCN1CCCC2(CC(Oc3ccc4c(c3)C(=O)N([C@H]3CCC(=O)NC3=O)C4=O)C2)C1 (stereo partly shown) [Compound D246]

- DC50: < 10 nM
SMILES: COc1cc(-c2cn(C)c(=O)c3cnccc23)cc(OC)c1CN(C)CCCCNC1CC2(CCN(c3ccc4c(c3)C(=O)N(C3CCC(=O)NC3=O)C4=O)CC2)C1 (stereo not shown) [Compound D247]

- DC50: 10 to 100 nM
SMILES: COc1cc(-c2cn(C)c(=O)c3cnccc23)cc(OC)c1CN(C)CCCCN1CC(Oc2ccc3c(c2)C(=O)N(C2CCC(=O)NC2=O)C3=O)C1 (stereo not shown) [Compound D249]

- DC50: < 10 nM
SMILES: COc1cc(-c2cn(C)c(=O)c3cnccc23)cc(OC)c1CN(C)CCCCNC1CC2(C1)CN(c1ccc3c(c1)C(=O)N(C1CCC(=O)NC1=O)C3=O)C2 (stereo not shown) [Compound D250]

- DC50: < 10 nM
SMILES: COc1cc(-c2cn(C)c(=O)c3cnccc23)cc(OC)c1CN(C)CCCCN1CC2(CC(Oc3ccc4c(c3)C(=O)N(C3CCC(=O)NC3=O)C4=O)C2)C1 (stereo not shown) [Compound D251]

- DC50: < 10 nM
SMILES: COc1cc(-c2cn(C)c(=O)c3cnccc23)cc(OC)c1CN(C)CCCCNC1CC12CCN(c1ccc3c(c1)C(=O)N(C1CCC(=O)NC1=O)C3=O)C2 (stereo not shown) [Compound D252]

- DC50: < 10 nM
SMILES: COc1cc(-c2cn(C)c(=O)c3cnccc23)cc(OC)c1CN(C)CCCCN1CCC2(CC(Oc3ccc4c(c3)C(=O)N(C3CCC(=O)NC3=O)C4=O)C2)C1 (stereo not shown) [Compound D253]

- DC50: < 10 nM
SMILES: COc1cc(-c2cn(C)c(=O)c3cnccc23)cc(OC)c1CN(C)CCCCN1CC2(C1)CN(c1ccc3c(c1)C(=O)N(C1CCC(=O)NC1=O)C3=O)C2 (stereo not shown) [Compound D254]

- DC50: < 10 nM
SMILES: COc1cc(-c2cn(C)c(=O)c3cnccc23)cc(OC)c1CN(C)CCCCNC1CC2(C1)CC(Oc1ccc3c(c1)C(=O)N(C1CCC(=O)NC1=O)C3=O)C2 (stereo not shown) [Compound D257]

- DC50: < 10 nM
SMILES: COc1cc(-c2cn(C)c(=O)c3cnccc23)cc(OC)c1CN(C)CCCCN1CC2(CCC(Oc3ccc4c(c3)C(=O)N(C3CCC(=O)NC3=O)C4=O)C2)C1 (stereo not shown) [Compound D259]

- DC50: < 10 nM
SMILES: COc1cc(-c2cn(C)c(=O)c3cnccc23)cc(OC)c1CN(C)C(=O)CCCCNC1CC2(C1)CC(Oc1ccc3c(c1)C(=O)N(C1CCC(=O)NC1=O)C3=O)C2 (stereo not shown) [Compound D260]

- DC50: < 10 nM
SMILES: COc1cc(-c2cn(C)c(=O)c3cnccc23)cc(OC)c1CN(C)C(=O)CCCCN1CCCC2(CC(Oc3ccc4c(c3)C(=O)N([C@@H]3CCC(=O)NC3=O)C4=O)C2)C1 (stereo partly shown) [Compound D261]

- DC50: < 10 nM
SMILES: COc1cc(-c2cn(C)c(=O)c3cnccc23)cc(OC)c1CN(C)C(=O)CCCCN1CCCC2(CC(Oc3ccc4c(c3)C(=O)N([C@H]3CCC(=O)NC3=O)C4=O)C2)C1 (stereo partly shown) [Compound D262]

- DC50: < 10 nM
SMILES: COc1cc(-c2cn(C)c(=O)c3cnccc23)cc(OC)c1CN(C)C(=O)CCCCN1CCC2(CC(Oc3ccc4c(c3)C(=O)N(C3CCC(=O)NC3=O)C4=O)C2)C1 (stereo not shown) [Compound D263]

- DC50: 10 to 100 nM
SMILES: COc1cc(-c2cn(C)c(=O)c3cnccc23)cc(OC)c1CN1CC(CC(=O)N2CCCC3(CC(Oc4ccc5c(c4)C(=O)N([C@@H]4CCC(=O)NC4=O)C5=O)C3)C2)C1 (stereo partly shown) [Compound D264]

- DC50: 100 to 1000 nM
SMILES: COc1cc(-c2cn(C)c(=O)c3cnccc23)cc(OC)c1CN1CC(CC(=O)N2CCCC3(CC(Oc4ccc5c(c4)C(=O)N([C@H]4CCC(=O)NC4=O)C5=O)C3)C2)C1 (stereo partly shown) [Compound D265]

- DC50: 10 to 100 nM
SMILES: COc1cc(-c2cn(C)c(=O)c3cnccc23)cc(OC)c1CN1CC(CC(=O)N2CCC3(CC(Oc4ccc5c(c4)C(=O)N([C@@H]4CCC(=O)NC4=O)C5=O)C3)C2)C1 (stereo partly shown) [Compound D266]

- DC50: 10 to 100 nM
SMILES: COc1cc(-c2cn(C)c(=O)c3cnccc23)cc(OC)c1CN1CC(CC(=O)N2CCC3(CC(Oc4ccc5c(c4)C(=O)N([C@H]4CCC(=O)NC4=O)C5=O)C3)C2)C1 (stereo partly shown) [Compound D267]

- DC50: 10 to 100 nM
SMILES: COc1cc(-c2cn(C)c(=O)c3cnccc23)cc(OC)c1CN(C)CCn1cc(CN2CC(Oc3ccc4c(c3)C(=O)N(C3CCC(=O)NC3=O)C4=O)C2)nn1 (stereo not shown) [Compound D276]

- DC50: 100 to 1000 nM
SMILES: COc1cc(-c2cn(C)c(=O)c3cnccc23)cc(OC)c1CN(C)CCCn1cc(CN2CC(Oc3ccc4c(c3)C(=O)N(C3CCC(=O)NC3=O)C4=O)C2)nn1 (stereo not shown) [Compound D285]
